US20210087565A1, “ANTISENSE ANTIBIOTICS AND BACTERIAL SECRETION BASED DELIVERY SYSTEM TO ELIMINATE DRUG-RESISTANT BACTERIA” (priority 2018, published 2021)
“And” between values parts separate entries of the source, which are not always exact repeats. Equal entries are not always repeated.

Key:
ESBL KPN = test: Potentiation of antibiotics with PNAs (Bliss Independence); type: cell-based, Klebsiella pneumoniae; settings: 10 μM PNA + 2 μg/mL tetracycline
Description: (§1) Combinatorial effects were evaluated using the Bliss Independence model where the S parameter defines a deviation from no interaction as is defined as: […]
(§2) Where ODAB is the OD at saturation time in only antibiotic, OD0 is the OD at saturation in no treatment, ODPNA is the OD at saturation in only antisense-PNA at 10 μM, and ODAB, PNA is the OD at saturation in a combination of antibiotic and antisense-PNA. Saturation time was determined as the time when the no treatment control reached its saturation growth phase. S>0 is a deviation towards synergy and S<0 is a deviation towards antagonism.

NDM-1 KPN [1] = test: as above; type: cell-based, Klebsiella pneumoniae; settings: 10 μM PNA + 8 μg/mL meropenem, compared to meropenem monotherapy
Description: as §1, §2

[2] = test system: SL1344 infection of MC3T3-E1 osteoblast precursor cells; test: Salmonella infection of osteoblast precursor cells, T3SS-PNA treatment; type: cell-based, Salmonella enterica serovar typhimurium; settings: 10 μM, multiplicity of infection of 30, 18 hours
Description: FIG. 11. […] Osteoblast precursor cells were grown for 24 hours on tissue culture treated 96-well plates prior to infection with SL1344 at a multiplicity of infection of 30. (A) The antisense inhibitor α-rpsD was added at 10 μM either without infection (No Treatment), after infection (Naked), or during infection (T3SS Transport). (B) After treatment for 18 hours the infection was imaged in brightfield and GFP channel. GFP expression corresponds to an intracellular infection with red arrows indicating hard to see GFP expression.
Osteoblast Precursor Cell Culture: MC3T3-E1 osteoblast precursor cells were stored in liquid nitrogen in growth media supplemented with %10 dimethyl sulfoxide (DMSO, Sigma). Osteoblasts were recovered from freezer stocks and cultured in growth media consisting of α-Minimum Essential Media (α-MEM, Gibco) supplemented with 10% Fetal Bovine Serum (FBS, Advanced, Atlanta Biologics), and 50 units/mL Penicillin-Streptomycin (P/S, Fisher Scientific) at 37° C., 5% CO2, and controlled humidity. For biological replicates a freezer stock, at passage 9, was split three ways and each replicate continuously passaged as individual biological replicates at 80% confluency using 0.25% trypsin (HyClone). […]

NDM-1 KPN [3] = test: PNA growth assay (optical density) on clinical isolate; type: cell-based, Klebsiella pneumoniae
Description: (§3) Bacterial Cell culture: The clinical isolates were obtained from the lab of Nancy Madinger at the University of Colorado Anschutz campus. Clinical isolates were grown in Cation Adjusted Mueller Hinton broth (CAMHB) (Becton, Dickinson and Company 212322) at 37° C. with 225 rpm shaking or on solid CAMHB with 1.5% agar at 37° C. Clinical isolates were maintained as freezer stocks in 90% CAMHB, 10% glycerol at −80° C. Freezer stocks were streaked out onto solid CAMHB and incubated for 16 h to produce single colonies prior to experiments. For each biological replicate, a single colony was picked from solid media and grown for 16 h in liquid CAMHB prior to experiments. Non-clinical isolates, such as E. coli MG1655 (ATCC700926) and Salmonella entorica serovar typhimurium SL1344, were cultured in liquid 2% lysogeny broth (LB) or on 2% LB with 1.5% agar for solid plates. S. typhimurium cultures were supplemented with 30 μg/mL streptomycin and SL1344 strains containing plasmids pFPV (SL1344-mCherry) or pRG1 modified with a lacIq promoter (SL1344-Holin) were supplemented with 100 μg/mL ampicillin. Freezer stocks were stored in 60% LB broth, 40% glycerol at −80° C. Freezer stocks were streaked out onto solid LB and incubated for 16 h to produce single colonies before experiments. For biological replicates, single colonies were started in liquid LB and grown for 16 hours prior to experiments. E. coli MG1655 PNA growth experiments were carried out in M9 media (1×M9 minimal media salts solution (MP Biomedicals), 2.0 mM MgSO4, and 0.1 mM CaCl2 in sterile water) with 0.4% glucose.
(§4) PNA growth assay: Biological replicates were diluted 1:10,000 into treatment condition in 384-well plates and measured for 24 h in a Tecan GENios at 562 nm with a bandwidth of 35 nm. Media absorbance blanks were subtracted from data prior to analysis. Normalized optical density (OD) data is shown normalized to the time point where the “no treatment” growth curves reached saturation phase which varied across biological replicates.

MDR E. coli = test: as above; type: cell-based, Escherichia coli
Description: as §3, §4

[4] = 10 μM PNA, optical density vs no treatment at 16 hours

Row | Substance | growth with combination therapy (in words) (ESBL KPN) | S-value (Bliss Independence model) (ESBL KPN; S>0 indicates synergy) | growth with combination therapy (in words) (NDM-1 KPN [1]) | Salmonella infection of osteoblast cells (in words) [2] | monotherapy effect (in words) (NDM-1 KPN [3]; 10 μM) | growth inhibition (NDM-1 KPN [3]; [4]) [%] | monotherapy effect (in words) (MDR E. coli) | growth inhibition (MDR E. coli; [4])
1 | α-lexA: 12-mer antisense PNA cGGAATGAAAGC (SEQ ID NO. 17) targeting lexA, conjugated to (KFF)3K cell penetrating peptide via AEEA-linker (antisense CGGAATGAAAGC; all peptide nucleic acid (PNA); (KFF)3K cell-penetrating peptide attached via AEEA linker) | significant growth inhibition compared to each monotherapy | positive |  |  |  |  |  | 
2 | α-rpsD: 12-mer antisense PNA AGAAAATGGCAA (SEQ ID NO. 19) targeting rpsD, conjugated to (KFF)3K cell penetrating peptide via AEEA-linker (all peptide nucleic acid (PNA); (KFF)3K cell-penetrating peptide attached via AEEA linker) |  |  | significantly reduced the growth | eliminates Salmonella infection | partial monotherapy effect | 65±7.1 | effective in killing | 98±0.7% and 98%
